# Tests used:
# [1] = biological target: Calcium/calmodulin-dependent protein kinase type II subunit alpha (Homo sapiens) (UniProt Q9UQM7); assay: Inhibition of CAMK2A (unknown origin) assessed as remaining activity at 1 uM by Kinome scan method relative to control
# [2] = biological target: Serine/threonine-protein kinase Chk2 (Homo sapiens) (UniProt O96017); assay: Inhibition of CHEK2 (unknown origin) assessed as remaining activity at 1 uM by Kinome scan method relative to control
# [3] = biological target: Casein kinase I isoform gamma-3 (Homo sapiens) (UniProt Q9Y6M4); assay: Inhibition of CSNK1G3 (unknown origin) assessed as remaining activity at 1 uM by Kinome scan method relative to control
# [4] = biological target: Inhibitor of nuclear factor kappa-B kinase subunit epsilon (Homo sapiens) (UniProt Q14164); assay: Inhibition of IKK-epsilon (unknown origin) assessed as remaining activity at 1 uM by Kinome scan method relative to control
# [5] = biological target: Serine/threonine-protein kinase 10 (Homo sapiens) (UniProt O94804); assay: Inhibition of LOK (unknown origin) assessed as remaining activity at 1 uM by Kinome scan method relative to control
# [6] = biological target: Serine/threonine-protein kinase pim-1 (Homo sapiens) (UniProt P11309); assay: Inhibition of PIM1 (unknown origin) assessed as remaining activity at 1 uM by Kinome scan method relative to control
# [7] = biological target: cAMP-dependent protein kinase catalytic subunit PRKX (Homo sapiens) (UniProt P51817); assay: Inhibition of PRKX (unknown origin) assessed as remaining activity at 1 uM by Kinome scan method relative to control
# [8] = biological target: Proto-oncogene tyrosine-protein kinase ROS (Homo sapiens) (UniProt P08922); assay: Inhibition of ROS1 (unknown origin) assessed as remaining activity at 1 uM by Kinome scan method relative to control
# [9] = biological target: T1, Calcium/calmodulin-dependent protein kinase type IV (Homo sapiens) (UniProt Q16566); assay: Inhibition of human CAMK4 assessed as residual activity at 1 uM using JUN as substrate in presence of 33P-ATP by ProQinase assay relative to control
# T1 sequence (whole entry): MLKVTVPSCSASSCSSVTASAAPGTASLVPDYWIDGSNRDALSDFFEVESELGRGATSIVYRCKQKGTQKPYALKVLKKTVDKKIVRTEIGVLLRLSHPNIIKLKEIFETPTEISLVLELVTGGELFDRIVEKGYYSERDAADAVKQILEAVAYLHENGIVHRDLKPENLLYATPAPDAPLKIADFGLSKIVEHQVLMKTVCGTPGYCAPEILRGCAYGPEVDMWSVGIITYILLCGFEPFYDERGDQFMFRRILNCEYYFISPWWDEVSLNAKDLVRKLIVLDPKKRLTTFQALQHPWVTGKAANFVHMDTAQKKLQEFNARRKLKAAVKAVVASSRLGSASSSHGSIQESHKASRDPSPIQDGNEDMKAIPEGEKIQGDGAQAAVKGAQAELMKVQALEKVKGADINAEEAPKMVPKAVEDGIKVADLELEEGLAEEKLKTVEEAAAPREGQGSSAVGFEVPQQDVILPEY
# [10] = biological target: Tyrosine-protein kinase Fes/Fps (Homo sapiens) (UniProt P07332); assay: Inhibition of human FES assessed as residual activity at 1 uM using polyEY as substrate in presence of 33P-ATP by ProQinase assay relative to control
# [11] = biological target: Fibroblast growth factor receptor 2 (Homo sapiens) (UniProt P21802); assay: Inhibition of human FGFR2 assessed as residual activity at 1 uM using PolyEY as substrate in presence of 33P-ATP by ProQinase assay relative to control
# [12] = biological target: Tyrosine-protein kinase Fgr (Homo sapiens) (UniProt P09769); assay: Inhibition of human FGR assessed as residual activity at 1 uM using polyEY as substrate in presence of 33P-ATP by ProQinase assay relative to control
# [13] = biological target: Serine/threonine-protein kinase D2 (Homo sapiens) (UniProt Q9BZL6); assay: Inhibition of human PRKD2 assessed as residual activity at 1 uM using RBER-CHKtide as substrate in presence of 33P-ATP by ProQinase assay relative to control
# [14] = biological target: T2, Serine/threonine-protein kinase PLK4 (Homo sapiens) (UniProt O00444); assay: Inhibition of human SAK assessed as residual activity at 1 uM using p38-alpha KA as substrate in presence of 33P-ATP by ProQinase assay relative to control
# T2 sequence (whole entry): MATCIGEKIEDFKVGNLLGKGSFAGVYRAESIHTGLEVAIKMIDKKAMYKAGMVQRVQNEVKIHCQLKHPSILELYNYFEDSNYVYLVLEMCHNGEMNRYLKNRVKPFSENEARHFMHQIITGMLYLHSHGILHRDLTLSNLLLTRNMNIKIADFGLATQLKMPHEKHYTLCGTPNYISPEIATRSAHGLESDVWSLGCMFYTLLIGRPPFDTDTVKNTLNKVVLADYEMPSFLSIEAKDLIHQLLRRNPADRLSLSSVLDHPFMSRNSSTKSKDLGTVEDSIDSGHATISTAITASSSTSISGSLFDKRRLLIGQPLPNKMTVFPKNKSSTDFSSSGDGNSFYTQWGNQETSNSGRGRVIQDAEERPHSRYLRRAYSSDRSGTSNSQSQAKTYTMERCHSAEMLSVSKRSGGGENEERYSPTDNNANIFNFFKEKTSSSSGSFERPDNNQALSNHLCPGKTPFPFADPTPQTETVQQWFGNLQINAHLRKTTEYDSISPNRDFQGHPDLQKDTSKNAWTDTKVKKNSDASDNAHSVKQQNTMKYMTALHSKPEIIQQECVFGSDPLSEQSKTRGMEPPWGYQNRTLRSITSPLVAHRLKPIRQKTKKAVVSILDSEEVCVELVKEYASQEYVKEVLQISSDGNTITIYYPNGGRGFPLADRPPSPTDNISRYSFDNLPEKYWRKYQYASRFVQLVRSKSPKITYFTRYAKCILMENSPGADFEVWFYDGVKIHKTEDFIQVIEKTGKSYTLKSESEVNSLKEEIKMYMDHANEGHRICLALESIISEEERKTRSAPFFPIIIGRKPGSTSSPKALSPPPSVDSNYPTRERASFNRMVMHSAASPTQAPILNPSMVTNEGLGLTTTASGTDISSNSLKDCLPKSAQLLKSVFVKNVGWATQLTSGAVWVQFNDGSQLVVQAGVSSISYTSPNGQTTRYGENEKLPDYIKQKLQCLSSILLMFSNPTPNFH
# [15] = biological target: Serine/threonine-protein kinase SIK2 (Homo sapiens) (UniProt Q9H0K1); assay: Inhibition of human SNF1LK2 assessed as residual activity at 1 uM using RBER-CHKtide as substrate in presence of 33P-ATP by ProQinase assay relative to control
# [16] = biological target: BDNF/NT-3 growth factors receptor (Homo sapiens) (UniProt Q16620); assay: Inhibition of human TRKB assessed as residual activity at 1 uM using polyEY as substrate in presence of 33P-ATP by ProQinase assay relative to control
# [17] = test system: Mus musculus; assay: In vivo anti-inflammatory activity in Gal/LPS induced mouse assessed as TNF-alpha release at 3 mg/kg, po administered for 1 hrs; assay type: functional
# Sequence of Serine/threonine-protein kinase pim-1 (Homo sapiens) (P11309 whole entry, looked up): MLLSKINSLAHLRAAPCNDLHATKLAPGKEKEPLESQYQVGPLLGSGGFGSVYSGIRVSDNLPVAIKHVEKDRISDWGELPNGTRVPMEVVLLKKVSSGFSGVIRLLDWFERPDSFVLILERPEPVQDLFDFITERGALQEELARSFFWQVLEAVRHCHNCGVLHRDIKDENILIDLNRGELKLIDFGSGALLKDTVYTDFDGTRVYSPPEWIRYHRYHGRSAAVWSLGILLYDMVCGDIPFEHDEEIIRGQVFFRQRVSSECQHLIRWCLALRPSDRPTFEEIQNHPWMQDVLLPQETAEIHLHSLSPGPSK
# Sequence of cAMP-dependent protein kinase catalytic subunit PRKX (Homo sapiens) (P51817 whole entry): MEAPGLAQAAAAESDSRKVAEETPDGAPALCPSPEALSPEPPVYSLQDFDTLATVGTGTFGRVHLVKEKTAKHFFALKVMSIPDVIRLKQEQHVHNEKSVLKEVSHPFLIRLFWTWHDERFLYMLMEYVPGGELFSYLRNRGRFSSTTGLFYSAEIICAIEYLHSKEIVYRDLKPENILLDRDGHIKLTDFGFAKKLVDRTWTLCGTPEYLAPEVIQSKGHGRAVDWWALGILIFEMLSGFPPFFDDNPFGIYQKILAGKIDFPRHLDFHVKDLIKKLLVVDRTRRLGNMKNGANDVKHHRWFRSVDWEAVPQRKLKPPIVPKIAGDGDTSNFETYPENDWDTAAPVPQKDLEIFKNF
# Sequence of BDNF/NT-3 growth factors receptor (Homo sapiens) (Q16620 32-822 limits assumed): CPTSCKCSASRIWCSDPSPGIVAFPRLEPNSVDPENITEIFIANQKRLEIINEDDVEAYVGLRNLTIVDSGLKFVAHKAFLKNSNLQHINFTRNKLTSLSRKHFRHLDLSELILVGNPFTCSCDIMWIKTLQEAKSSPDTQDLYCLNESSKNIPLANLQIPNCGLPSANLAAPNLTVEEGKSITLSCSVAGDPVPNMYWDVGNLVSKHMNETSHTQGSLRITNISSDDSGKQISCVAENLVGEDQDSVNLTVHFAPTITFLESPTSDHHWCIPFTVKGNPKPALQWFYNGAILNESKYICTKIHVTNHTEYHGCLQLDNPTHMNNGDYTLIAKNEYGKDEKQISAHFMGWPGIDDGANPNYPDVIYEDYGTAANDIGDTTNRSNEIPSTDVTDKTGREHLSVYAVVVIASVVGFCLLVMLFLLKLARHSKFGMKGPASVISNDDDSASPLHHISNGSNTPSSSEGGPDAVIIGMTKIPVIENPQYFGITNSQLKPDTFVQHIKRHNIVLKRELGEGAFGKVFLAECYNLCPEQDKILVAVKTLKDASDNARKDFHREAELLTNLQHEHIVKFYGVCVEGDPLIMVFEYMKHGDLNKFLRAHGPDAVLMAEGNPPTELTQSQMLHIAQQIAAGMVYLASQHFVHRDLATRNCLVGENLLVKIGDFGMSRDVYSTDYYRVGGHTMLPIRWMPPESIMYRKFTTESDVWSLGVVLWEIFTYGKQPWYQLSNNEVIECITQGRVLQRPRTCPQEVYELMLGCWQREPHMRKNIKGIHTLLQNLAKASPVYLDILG
# Sequence of Serine/threonine-protein kinase SIK2 (Homo sapiens) (Q9H0K1 whole entry, looked up): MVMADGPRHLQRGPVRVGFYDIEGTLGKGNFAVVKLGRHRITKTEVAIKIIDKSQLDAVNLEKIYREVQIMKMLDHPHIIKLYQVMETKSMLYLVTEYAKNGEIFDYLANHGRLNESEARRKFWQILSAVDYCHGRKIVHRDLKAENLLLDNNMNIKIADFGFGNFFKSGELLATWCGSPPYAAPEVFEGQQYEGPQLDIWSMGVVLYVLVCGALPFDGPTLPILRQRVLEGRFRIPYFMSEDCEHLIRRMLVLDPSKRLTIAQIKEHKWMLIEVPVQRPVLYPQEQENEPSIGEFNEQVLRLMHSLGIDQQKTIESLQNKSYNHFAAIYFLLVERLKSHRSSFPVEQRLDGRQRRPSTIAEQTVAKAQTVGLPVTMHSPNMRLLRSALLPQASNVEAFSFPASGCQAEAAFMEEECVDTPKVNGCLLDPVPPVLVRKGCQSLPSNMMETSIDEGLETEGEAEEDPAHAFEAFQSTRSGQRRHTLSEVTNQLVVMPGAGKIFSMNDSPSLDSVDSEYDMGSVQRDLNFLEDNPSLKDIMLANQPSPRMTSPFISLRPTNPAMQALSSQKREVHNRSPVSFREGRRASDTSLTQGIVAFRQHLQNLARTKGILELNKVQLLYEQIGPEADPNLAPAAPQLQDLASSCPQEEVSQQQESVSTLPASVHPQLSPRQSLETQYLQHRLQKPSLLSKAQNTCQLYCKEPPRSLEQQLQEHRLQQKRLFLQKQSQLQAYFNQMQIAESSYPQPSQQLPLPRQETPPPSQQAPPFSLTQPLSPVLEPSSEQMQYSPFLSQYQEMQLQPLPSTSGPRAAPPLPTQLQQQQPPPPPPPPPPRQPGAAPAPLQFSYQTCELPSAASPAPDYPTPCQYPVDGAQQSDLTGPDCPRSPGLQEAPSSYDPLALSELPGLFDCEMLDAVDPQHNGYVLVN
# Sequence of Inhibitor of nuclear factor kappa-B kinase subunit epsilon (Homo sapiens) (Q14164 whole entry): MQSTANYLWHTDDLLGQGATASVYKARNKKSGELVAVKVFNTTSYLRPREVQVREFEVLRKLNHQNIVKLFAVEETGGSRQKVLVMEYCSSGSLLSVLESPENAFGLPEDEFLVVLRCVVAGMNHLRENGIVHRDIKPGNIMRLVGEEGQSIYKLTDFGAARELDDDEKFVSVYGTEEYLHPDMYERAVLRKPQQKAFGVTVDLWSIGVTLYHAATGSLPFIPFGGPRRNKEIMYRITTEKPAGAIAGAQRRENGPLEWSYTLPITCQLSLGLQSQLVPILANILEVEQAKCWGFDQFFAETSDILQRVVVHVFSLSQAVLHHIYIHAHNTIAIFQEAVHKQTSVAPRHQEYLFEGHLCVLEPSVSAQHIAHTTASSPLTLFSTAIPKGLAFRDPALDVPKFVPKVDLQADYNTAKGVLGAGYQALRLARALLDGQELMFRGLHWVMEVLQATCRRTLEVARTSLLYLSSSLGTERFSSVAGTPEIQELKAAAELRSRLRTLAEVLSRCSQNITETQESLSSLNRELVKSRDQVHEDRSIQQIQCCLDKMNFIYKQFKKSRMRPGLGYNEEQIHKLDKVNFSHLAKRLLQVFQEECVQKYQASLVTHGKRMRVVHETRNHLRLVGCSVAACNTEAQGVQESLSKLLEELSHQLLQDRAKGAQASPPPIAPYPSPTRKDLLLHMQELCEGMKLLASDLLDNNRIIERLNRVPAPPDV
# Sequence of Serine/threonine-protein kinase D2 (Homo sapiens) (Q9BZL6 whole entry): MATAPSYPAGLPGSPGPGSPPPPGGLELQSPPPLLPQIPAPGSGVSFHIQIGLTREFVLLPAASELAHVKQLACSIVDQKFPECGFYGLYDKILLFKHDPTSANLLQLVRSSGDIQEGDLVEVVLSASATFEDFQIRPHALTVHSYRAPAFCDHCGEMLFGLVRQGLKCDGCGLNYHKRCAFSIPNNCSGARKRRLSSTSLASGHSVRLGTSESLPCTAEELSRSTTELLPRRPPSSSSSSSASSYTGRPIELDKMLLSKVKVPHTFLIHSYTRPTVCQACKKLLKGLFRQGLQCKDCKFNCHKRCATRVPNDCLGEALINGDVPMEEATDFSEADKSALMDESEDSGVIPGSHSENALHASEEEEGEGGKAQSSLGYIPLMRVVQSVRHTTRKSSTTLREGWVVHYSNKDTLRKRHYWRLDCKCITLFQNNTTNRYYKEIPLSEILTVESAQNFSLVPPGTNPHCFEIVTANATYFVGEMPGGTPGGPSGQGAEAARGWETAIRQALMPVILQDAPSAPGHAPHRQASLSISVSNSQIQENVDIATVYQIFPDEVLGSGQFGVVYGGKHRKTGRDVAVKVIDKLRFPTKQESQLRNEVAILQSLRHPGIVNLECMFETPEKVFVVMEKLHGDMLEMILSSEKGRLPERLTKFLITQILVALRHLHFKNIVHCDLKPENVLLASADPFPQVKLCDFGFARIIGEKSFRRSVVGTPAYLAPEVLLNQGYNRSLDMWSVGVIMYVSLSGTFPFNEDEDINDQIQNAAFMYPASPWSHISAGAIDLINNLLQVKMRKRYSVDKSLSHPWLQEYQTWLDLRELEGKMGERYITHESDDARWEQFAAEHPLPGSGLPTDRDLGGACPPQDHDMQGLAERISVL
# Sequence of Serine/threonine-protein kinase 10 (Homo sapiens) (O94804 whole entry, looked up): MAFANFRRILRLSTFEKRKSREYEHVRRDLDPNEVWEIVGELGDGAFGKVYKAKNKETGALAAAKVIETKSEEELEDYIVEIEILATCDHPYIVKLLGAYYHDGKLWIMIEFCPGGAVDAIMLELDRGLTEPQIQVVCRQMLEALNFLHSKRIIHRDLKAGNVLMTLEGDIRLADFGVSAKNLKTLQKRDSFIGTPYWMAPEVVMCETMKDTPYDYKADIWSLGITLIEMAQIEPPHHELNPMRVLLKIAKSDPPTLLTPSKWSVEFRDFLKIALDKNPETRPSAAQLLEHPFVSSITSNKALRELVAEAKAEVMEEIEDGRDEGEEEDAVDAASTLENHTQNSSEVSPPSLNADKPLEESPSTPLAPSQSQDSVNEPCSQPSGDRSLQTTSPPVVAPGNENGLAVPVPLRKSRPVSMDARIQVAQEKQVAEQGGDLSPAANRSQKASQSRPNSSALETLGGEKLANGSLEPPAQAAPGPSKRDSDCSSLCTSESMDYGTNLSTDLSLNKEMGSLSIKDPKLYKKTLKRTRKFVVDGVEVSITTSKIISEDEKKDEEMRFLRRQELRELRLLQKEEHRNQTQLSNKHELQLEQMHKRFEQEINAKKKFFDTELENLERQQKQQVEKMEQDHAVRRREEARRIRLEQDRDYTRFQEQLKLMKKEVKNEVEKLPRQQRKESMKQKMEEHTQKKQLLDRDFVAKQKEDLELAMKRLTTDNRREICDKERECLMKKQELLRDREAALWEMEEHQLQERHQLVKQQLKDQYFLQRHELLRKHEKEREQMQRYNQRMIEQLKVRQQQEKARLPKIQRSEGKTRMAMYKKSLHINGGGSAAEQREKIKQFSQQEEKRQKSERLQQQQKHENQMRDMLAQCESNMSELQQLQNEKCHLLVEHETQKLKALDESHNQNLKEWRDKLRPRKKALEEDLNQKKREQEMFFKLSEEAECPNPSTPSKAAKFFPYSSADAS
smiles,measurement,setting,value
O=C1c2ccc(Nc3ccc(F)cc3F)cc2CCc2ccc(OC[C@H](O)CO)cc21 [Skepinone-L],Activity,[1],100%
same,Activity,[2],100%
same,Activity,[3],100%
same,Activity,[4],100%
same,Activity,[5],96%
same,Activity,[6],100%
same,Activity,[7],89%
same,Activity,[8],99%
same,Activity,[9],111%
same,Activity,[10],121%
same,Activity,[11],125%
same,Activity,[12],100%
same,Activity,[13],85%
same,Activity,[14],62%
same,Activity,[15],86%
same,Activity,[16],77%
same,Activity,[17],36.3 pg/mL

# From ChEMBL document CHEMBL5696441 (Nat Chem Biol, 2011)
